For the test, the system named is HepaRG. Briefly: LDH release cytotoxicity, % of total lysis control; higher = more cytotoxic. The conditions noted are these: 48 h. An outline of the steps:
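The CytoTox-ONE kit was used to read LDH in 50 µL spent medium as resorufin fluorescence on a Tecan Safire, with 0.1% Triton X added to total lysis wells. Beforehand, single-lot HepaRG cells on collagen I-coated 96-well plates had been exposed in duplicate for 48 h to eight-point half-log series (top 100 µM) in serum-free induction medium containing 0.5% DMSO. Percent cytotoxicity was normalized against on-plate vehicle and total lysis controls and averaged over duplicates.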
A general note: LDH in the medium is a marker of cell lysis.

Each structure is given as a SMILES string. ± gives the standard deviation of the averaged measurements.

Consider `NC1CCCCC1` [Cyclohexylamine], for which the LDH release cytotoxicity is -1.45 ± 0.53% (0.03162 µM); -1.58 ± 0.49% (0.1 µM); -1.84 ± 0.28% (0.3162278 µM); -2.2 ± 0.96% (1 µM); -2.32 ± 0.31% (3.16228 µM); -1.74 ± 0.66% (10 µM). Besides, the LDH release cytotoxicity (31.6228 µM) is -0.752 ± 0.11% and the LDH release cytotoxicity (100 µM) came out at 0.0324 ± 0.072%.

Consider `ClC(Cl)c1ccccc1` [Benzal chloride], for which the LDH release cytotoxicity by setting is: (0.03162 µM) 0.273 ± 0.17%; (0.1 µM) -0.75 ± 0.78%; (0.3162278 µM) -0.461 ± 0.39%; (1 µM) -1.3 ± 1.2%; (3.16228 µM) -1.29 ± 0.9%; (10 µM) 0.533 ± 0.9%. Further, the LDH release cytotoxicity (31.6228 µM) came out at 1.06 ± 1.1% and the LDH release cytotoxicity (100 µM) came to 2.15 ± 0.29%.

Take `Nc1ccc(C(=O)O)cc1` [4-Aminobenzoic acid]: the LDH release cytotoxicity is, setting by setting: (0.031623 µM) -2.09 ± 0.27%; (0.1 µM) -1.2 ± 2.3%; (0.316228 µM) -0.757 ± 1.4%; (1 µM) -2.3 ± 1.1%; (3.16228 µM) -2.47 ± 0.28%; (10 µM) -1.41 ± 0.43%. In addition, the LDH release cytotoxicity (31.6228 µM) is -0.777 ± 0.61% and the LDH release cytotoxicity (100 µM) amounted to 1.93 ± 0.47%.

On to `O=C(O)C(F)(F)C(F)(F)C(F)(F)C(F)(F)C(F)(F)C(F)(F)C(F)(F)C(F)(F)C(F)(F)F` [Perfluorodecanoic acid], for which the LDH release cytotoxicity was 2.61 ± 0.091% (0.031623 µM); -0.365 ± 0.079% (0.1 µM); -0.683 ± 1.6% (0.316228 µM); -0.768 ± 0.65% (1 µM); -7.62 ± 0.32% (3.16228 µM); 7.64 ± 0.07% (10 µM). Further, the LDH release cytotoxicity by setting is: (31.6228 µM) 8.49 ± 0.18%; (100 µM) 44.4 ± 6.8%.

Turning to `O=C(O)c1ccccc1` [Benzoic acid], the LDH release cytotoxicity (0.0324133 µM) is -0.341 ± 0.5%; the LDH release cytotoxicity (0.1025 µM) is -0.867 ± 1.3%; the LDH release cytotoxicity (0.324134 µM) was -1.11 ± 1.2%; the LDH release cytotoxicity (1.025 µM) is -0.944 ± 0.73%; the LDH release cytotoxicity (3.24133 µM) was -0.925 ± 0.73%; the LDH release cytotoxicity (10.25 µM) worked out at 0.28 ± 0.2%. Moreover, the LDH release cytotoxicity was 0.174 ± 0.36% (32.4133 µM) and 0.953 ± 0.28% (102.5 µM).

`c1cc(-c2ccncc2)ccn1` [4,4'-Bipyridine]: the LDH release cytotoxicity was -0.85 ± 0.14% (0.03162 µM); -1.15 ± 0.96% (0.1 µM); -0.941 ± 0.12% (0.3162278 µM); -1.18 ± 0.065% (1 µM); -1.05 ± 0.039% (3.16228 µM); 4.58 ± 0.24% (10 µM). In addition, the LDH release cytotoxicity was 24 ± 0.4% (31.6228 µM) and 18 ± 1.7% (100 µM).

For the molecule `O=C1CCCCC1` [Cyclohexanone], the LDH release cytotoxicity (0.03162 µM) is -0.709 ± 0.56%; the LDH release cytotoxicity (0.1 µM) was -1.76 ± 0.34%; the LDH release cytotoxicity (0.3162278 µM) is -1.81 ± 0.036%; the LDH release cytotoxicity (1 µM) is -1.07 ± 0.29%; the LDH release cytotoxicity (3.16228 µM) was -1.46 ± 0.24%; the LDH release cytotoxicity (10 µM) is -1.17 ± 0.039%. Also, the LDH release cytotoxicity (31.6228 µM) was -0.292 ± 0.4% and the LDH release cytotoxicity (100 µM) worked out at 0.737 ± 0.51%.

For `CC(C)=CC1C(C(=O)OCc2coc(Cc3ccccc3)c2)C1(C)C` (stereo not drawn) [Resmethrin], the LDH release cytotoxicity is -0.985 ± 0.042% (0.03162 µM); -0.737 ± 0.31% (0.1 µM); -0.651 ± 0.22% (0.3162278 µM); -1.31 ± 0.019% (1 µM); -0.881 ± 0.065% (3.16228 µM); -0.19 ± 0.24% (10 µM). In addition, the LDH release cytotoxicity was -0.451 ± 0.58% (31.6228 µM) and 0.209 ± 1.3% (100 µM).

Consider `Clc1ccc(C(c2ccc(Cl)cc2)C(Cl)Cl)cc1` [p,p'-DDD], for which the LDH release cytotoxicity runs as follows: (0.03162 µM) -1.25 ± 0.49%; (0.1 µM) -1.27 ± 0.24%; (0.3162278 µM) -2.03 ± 0.73%; (1 µM) -1.62 ± 0.97%; (3.16228 µM) -0.977 ± 0.88%; (10 µM) -1.35 ± 0.072%. The LDH release cytotoxicity by setting is: (31.6228 µM) -1.4 ± 0.21%; (100 µM) 0.26 ± 1.1%.

Regarding `Cc1ccc(Cl)cc1` [4-Chlorotoluene], the LDH release cytotoxicity (0.031623 µM) was -0.192 ± 0.14%; the LDH release cytotoxicity (0.1 µM) is -1.27 ± 2.3%; the LDH release cytotoxicity (0.316228 µM) was -1.26 ± 0.55%; the LDH release cytotoxicity (1 µM) was -2.78 ± 0.39%; the LDH release cytotoxicity (3.16228 µM) was -2.43 ± 0.42%; the LDH release cytotoxicity (10 µM) is -1.55 ± 1.5%. In addition, the LDH release cytotoxicity is, setting by setting: (31.6228 µM) -1.15 ± 0.57%; (100 µM) 1.18 ± 0.3%.

Take `CCCCC(CC)COC(=O)CCCCCCCC(=O)OCC(CC)CCCC` (stereo not drawn) [Bis(2-ethylhexyl) nonanedioate]: the LDH release cytotoxicity is, setting by setting: (0.03162 µM) -1.88 ± 0.055%; (0.1 µM) -2.868 ± 0.0068%; (0.3162278 µM) -2.85 ± 0.81%; (1 µM) -3 ± 0.21%; (3.16228 µM) -2.9 ± 0.15%; (10 µM) -2.46 ± 0.2%. For the same molecule, the LDH release cytotoxicity (31.6228 µM) was -2.95 ± 0.69% and the LDH release cytotoxicity (100 µM) was -1.1 ± 0.36%.

In the case of `CCOP(=S)(OCC)Oc1ccc2c(C)c(Cl)c(=O)oc2c1` [Coumaphos], the LDH release cytotoxicity reads like this: (0.031623 µM) -0.785 ± 0.75%; (0.1 µM) -3.39 ± 0.25%; (0.316228 µM) -2.36 ± 0.68%; (1 µM) -2.83 ± 0.67%; (3.16228 µM) -3.28 ± 0.22%; (10 µM) -3.57 ± 0.062%. The LDH release cytotoxicity was -2.86 ± 0.88% (31.6228 µM) and 5.7 ± 1.4% (100 µM).

For the molecule `C=CC(=C)CCC=C(C)C` [Myrcene], the LDH release cytotoxicity by setting is: (0.031623 µM) -1.27 ± 1.6%; (0.1 µM) -2.39 ± 1%; (0.316228 µM) -2.35 ± 0.3%; (1 µM) -1.45 ± 0.82%; (3.16228 µM) -1.74 ± 1.4%; (10 µM) -1.93 ± 0.083%. Besides, the LDH release cytotoxicity reads like this: (31.6228 µM) -1.8 ± 0.49%; (100 µM) 0.279 ± 0.4%.

For `O=C(O)C(F)(F)C(F)(F)C(F)(F)C(F)(F)C(F)(F)C(F)(F)C(F)(F)C(F)(F)F` [Perfluorononanoic acid], the LDH release cytotoxicity is -0.689 ± 0.78% (0.03162 µM); -1.58 ± 0.88% (0.1 µM); -1.12 ± 0.43% (0.3162278 µM); -2.4 ± 0.24% (1 µM); -1.4 ± 0.082% (3.16228 µM); -1.71 ± 0.11% (10 µM). Besides, the LDH release cytotoxicity reads like this: (31.6228 µM) -1.31 ± 0.22%; (100 µM) 27.5 ± 4.5%.

Regarding `COCc1nnc(-c2ccc[n+]([O-])c2)n1-c1c(Cl)c(Cl)cc2[nH]c(=O)c(=O)[nH]c12`, the LDH release cytotoxicity is -1.68 ± 0.083% (0.03162 µM); -1.55 ± 0.35% (0.1 µM); -2.04 ± 0.24% (0.3162278 µM); -2.82 ± 1.1% (1 µM); -2.03 ± 0.3% (3.16228 µM); -1.6 ± 0.17% (10 µM). Moreover, the LDH release cytotoxicity is -1.69 ± 0.83% (31.6228 µM) and -0.641 ± 0.26% (100 µM).

Consider `CCCN(CCC)N=O` [N-Nitrosodi-n-propylamine], for which the LDH release cytotoxicity was 0.0788 ± 0.46% (0.03162 µM); -0.576 ± 0.82% (0.1 µM); -1.11 ± 1.1% (0.3162278 µM); -2.21 ± 1.1% (1 µM); -1.474 ± 0.0032% (3.16228 µM); -1.09 ± 0.64% (10 µM). In addition, the LDH release cytotoxicity was -1.53 ± 0.55% (31.6228 µM) and 0.635 ± 0.017% (100 µM).

Values taken from the supplement of paper PMC7840683.
